Data taken from patent US11051515B2, “3-acyl-benzamides and their use as herbicides” (Bayer Aktiengesellschaft, priority 2017, dated 2021).

Key:
ALOMY [1] = experiment: Pre-emergence action against ALOMY; type: in vivo, Alopecurus myosuroides; conditions: dosage 320 g/ha; pre-emergence; scored visually after 3 weeks vs untreated controls; 100% = plants have died, 0% = like control plants
Procedure, shortened: (§1)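 Seeds sown in sandy loam in wood-fiber pots and covered with soil. Greenhouse growth; visual damage scored after 3 weeks versus untreated controls (100% = dead, 0% = like control).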

VERPE [2] = experiment: Post-emergence action against VERPE; type: in vivo, Veronica persica; conditions: dosage 80 g/ha
Procedure, shortened: (§2)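 Post-emergence foliar spray on greenhouse plants at the one-leaf stage, using wettable-powder or emulsion-concentrate formulations in water (600 to […], plus 0.2% wetting agent). Damage scored by eye roughly 3 weeks later against untreated plants: 0% = like control, 100% = dead.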

ALOMY [3] = experiment: Post-emergence action against ALOMY; type: in vivo, Alopecurus myosuroides; conditions: Dosage 80 g/ha, post-emergence
Procedure, shortened: as §2

ABUTH [4] = experiment: Pre-emergence action against ABUTH; type: in vivo, Abutilon theophrasti; conditions: pre-emergence, dosage 320 g/ha, scored visually after 3 weeks vs untreated controls
Procedure, shortened: as §1

AVEFA [5] = experiment: Pre-emergence action against AVEFA; type: in vivo, Avena fatua; conditions: dosage 320 g/ha, scored visually after 3 weeks vs untreated controls
Procedure, shortened: as §1

VERPE [6] = experiment: Pre-emergence action against VERPE; type: in vivo, Veronica persica; conditions: Dosage 320 g/ha, pre-emergence
Procedure, shortened: as §1

MATIN [7] = experiment: Pre-emergence action against MATIN; type: in vivo, Matricaria inodora; conditions: Dosage 320 g/ha, pre-emergence
Procedure, shortened: as §1

VIOTR [8] = experiment: Post-emergence action against VIOTR; type: in vivo, Viola tricolor; conditions: post-emergence, dosage 80 g/ha
Procedure, shortened: as §2

ECHCG [9] = experiment: Post-emergence action against ECHCG; type: in vivo, Echinochloa crus-galli; conditions: post-emergence, dosage 80 g/ha, visual assessment about 3 weeks after treatment vs untreated controls
Procedure, shortened: as §2

STEME [10] = experiment: Pre-emergence action against STEME; type: in vivo, Stellaria media; conditions: Dosage 320 g/ha, pre-emergence
Procedure, shortened: as §1

AMARE [11] = experiment: Pre-emergence action against AMARE; type: in vivo, Amaranthus retroflexus; conditions: pre-emergence, dosage 320 g/ha, scored visually after 3 weeks vs untreated controls
Procedure, shortened: as §1

SETVI [12] = experiment: Pre-emergence action against SETVI; type: in vivo, Setaria viridis; conditions: pre-emergence, dosage 320 g/ha, scored visually after 3 weeks vs untreated controls
Procedure, shortened: as §1

PHBPU [13] = experiment: Post-emergence action against PHBPU; type: in vivo, Pharbitis purpurea; conditions: post-emergence, dosage 80 g/ha
Procedure, shortened: as §2

STEME [14] = experiment: Post-emergence action against STEME; type: in vivo, Stellaria media; conditions: post-emergence, dosage 80 g/ha
Procedure, shortened: as §2

AVEFA [15] = experiment: Post-emergence action against AVEFA; type: in vivo, Avena fatua; conditions: post-emergence, dosage 80 g/ha, visual assessment about 3 weeks after treatment vs untreated controls
Procedure, shortened: as §2

ECHCG [16] = experiment: Pre-emergence action against ECHCG; type: in vivo, Echinochloa crus-galli; conditions: pre-emergence, dosage 320 g/ha, scored visually after 3 weeks vs untreated controls
Procedure, shortened: as §1

ABUTH [17] = experiment: Post-emergence action against ABUTH; type: in vivo, Abutilon theophrasti; conditions: post-emergence, dosage 80 g/ha, visual assessment about 3 weeks after treatment vs untreated controls
Procedure, shortened: as §2

AMARE [18] = experiment: Post-emergence action against AMARE; type: in vivo, Amaranthus retroflexus; conditions: post-emergence, dosage 80 g/ha, visual assessment about 3 weeks after treatment vs untreated controls
Procedure, shortened: as §2

LOLMU = experiment: Pre-emergence action against LOLMU; type: in vivo, Lolium multiflorum; conditions: dosage 320 g/ha, scored visually after 3 weeks vs untreated controls
Excerpt: Seeds of monocotyledonous and dicotyledonous weed plants and crop plants are laid out in sandy loam soil in wood-fiber pots and covered with soil. The compounds of the invention, formulated in the form of wettable powders (WP) or as emulsion concentrates (EC), are then applied to the surface of the covering soil in the form of an aqueous suspension or emulsion at a water application rate equating to […], with addition of 0.2% wetting agent. After the treatment, the pots are placed in a greenhouse and kept under good growth conditions for the trial plants. The damage to the test plants is scored visually after a test period of 3 weeks by comparison with untreated controls (herbicidal activity in percent (%): 100% activity=the plants have died, 0% activity=like control plants).

MATIN [19] = experiment: Post-emergence action against MATIN; type: in vivo, Matricaria inodora; conditions: post-emergence, dosage 80 g/ha, visual assessment about 3 weeks after treatment vs untreated controls
Procedure, shortened: as §2

CYPES [20] = experiment: Pre-emergence action against CYPES; type: in vivo, Cyperus esculentus; conditions: pre-emergence, dosage 320 g/ha, scored visually after 3 weeks vs untreated controls
Procedure, shortened: as §1

SETVI [21] = experiment: Post-emergence action against SETVI; type: in vivo, Setaria viridis; conditions: post-emergence, dosage 80 g/ha, visual assessment about 3 weeks after treatment vs untreated controls
Procedure, shortened: as §2

VIOTR [22] = experiment: Pre-emergence action against VIOTR; type: in vivo, Viola tricolor; conditions: Dosage 320 g/ha, pre-emergence
Procedure, shortened: as §1

POLCO [23] = experiment: Post-emergence action against POLCO; type: in vivo, Polygonum convolvulus; conditions: post-emergence, dosage 80 g/ha
Procedure, shortened: as §2

PHBPU [24] = experiment: Pre-emergence action against PHBPU; type: in vivo, Pharbitis purpurea; conditions: Dosage 320 g/ha, pre-emergence
Procedure, shortened: as §1

CYPES [25] = experiment: Post-emergence action against CYPES; type: in vivo, Cyperus esculentus; conditions: post-emergence, dosage 80 g/ha, visual assessment about 3 weeks after treatment vs untreated controls
Procedure, shortened: as §2

POLCO [26] = experiment: Pre-emergence action against POLCO; type: in vivo, Polygonum convolvulus; conditions: Dosage 320 g/ha, pre-emergence
Procedure, shortened: as §1

Structure (SMILES) | Pre-emergence action against ALOMY (herbicidal activity in percent) (ALOMY [1]) [%] | Pre-emergence action against ABUTH (herbicidal activity) (ABUTH [4]) [%] | Pre-emergence action against AVEFA (herbicidal activity) (AVEFA [5]) [%] | Pre-emergence action against VERPE (VERPE [6]) [%] | Pre-emergence action against MATIN (MATIN [7]) [%] | Post-emergence action against VIOTR (VIOTR [8]) | Post-emergence action against ECHCG (herbicidal action in percent) (ECHCG [9]) [%] | Pre-emergence action against STEME (STEME [10]) [%] | Pre-emergence action against AMARE (herbicidal activity) (AMARE [11]) [%] | SETVI (Table B8, pre-emergence herbicidal activity) (SETVI [12]) [%] | Post-emergence action against PHBPU (PHBPU [13]) | Post-emergence action against STEME (STEME [14]) | Pre-emergence action against ECHCG (herbicidal activity) (ECHCG [16]) [%] | Post-emergence action against ABUTH (herbicidal action in percent) (ABUTH [17]) [%] | Pre-emergence action against LOLMU (herbicidal activity) (LOLMU) [%] | Post-emergence action against MATIN (herbicidal action in percent) (MATIN [19]) [%] | Pre-emergence action against CYPES (herbicidal activity) (CYPES [20]) [%] | Post-emergence action against SETVI (herbicidal action in percent) (SETVI [21]) [%] | Pre-emergence action against VIOTR (VIOTR [22]) [%] | other results
CCn1nnnc1NC(=O)c1ccc(SC)c(C(=O)C2CC2)c1Cl [2-123] | 100 | 100 | 80 | 100 | 100 | 100 | 100 | 100 | 100 | 100 | 100 | 100 | 100 | 100 | 90 | 100 | 90 | 100 | 100 | Post-emergence action against VERPE (VERPE [2]): 100; Post-emergence action against ALOMY (ALOMY [3]): 90%; Post-emergence action against AVEFA (herbicidal action in percent) (AVEFA [15]): 100%; Post-emergence action against AMARE (herbicidal action in percent) (AMARE [18]): 100%
CCn1nnnc1NC(=O)c1ccc(C(F)(F)F)c(C(C)=O)c1Br [2-195] | 90 | 100 | 90 | 100 | 100 | 100 | 90 | 100 | 100 | 100 | 90 | 90 | 100 | 80 | 80 | 90 | 100 | 90 | 100 | Post-emergence action against POLCO (POLCO [23]): 90; Pre-emergence action against PHBPU (PHBPU [24]): 80%; Post-emergence action against CYPES (herbicidal action in percent) (CYPES [25]): 90%; Pre-emergence action against POLCO (POLCO [26]): 90%
